The CheMixHub viscosity set
“And” between values parts separate entries of the source, which are not always exact repeats. Equal values may be shown once. ± gives the uncertainty stated by the source.

Test: xn = mol fraction of the nth substance listed

CS(C)=O + O
Settings | viscosity
303.15 K, 101 kPa, x1 = 0.01869 | 0.91 ± 0.27 mPa·s
303.15 K, 101 kPa, x1 = 0.0406 | 1.05 ± 0.32 mPa·s
303.15 K, 101 kPa, x1 = 0.05 | 1.176 ± 0.011 mPa·s
303.15 K, 101 kPa, x1 = 0.15 | 2.183 ± 0.021 mPa·s
303.15 K, 101 kPa, x1 = 0.25 | 2.978 ± 0.034 mPa·s
303.15 K, 101 kPa, x1 = 0.35 | 3.26 ± 0.043 mPa·s
303.15 K, 101 kPa, x1 = 0.48 | 2.884 ± 0.045 mPa·s
303.15 K, 101 kPa, x1 = 0.73 | 2.115 ± 0.044 mPa·s
303.15 K, 101.3 kPa, x1 = 0.012 | 0.88 ± 0.023 mPa·s
303.15 K, 101.3 kPa, x2 = 0.1906 | 2.071 ± 0.054 mPa·s
303.15 K, 101.3 kPa, x2 = 0.3252 | 2.348 ± 0.061 mPa·s
303.15 K, 101.3 kPa, x2 = 0.5203 | 2.958 ± 0.077 mPa·s
303.15 K, 101.3 kPa, x2 = 0.6501 | 3.218 ± 0.084 mPa·s
303.15 K, 101.3 kPa, x2 = 0.743 | 2.942 ± 0.077 mPa·s
303.15 K, 101.3 kPa, x2 = 0.8183 | 2.402 ± 0.063 mPa·s
303.15 K, 101.3 kPa, x2 = 0.8668 | 1.941 ± 0.051 mPa·s
303.15 K, 101.3 kPa, x2 = 0.9101 | 1.536 ± 0.04 mPa·s
303.15 K, 101.3 kPa, x2 = 0.9751 | 0.981 ± 0.026 mPa·s
308.15 K, 101 kPa, x1 = 0.05 | 1.065 ± 0.01 mPa·s
308.15 K, 101 kPa, x1 = 0.15 | 1.942 ± 0.02 mPa·s
308.15 K, 101 kPa, x1 = 0.25 | 2.606 ± 0.03 mPa·s
308.15 K, 101 kPa, x1 = 0.35 | 2.84 ± 0.037 mPa·s
308.15 K, 101 kPa, x1 = 0.48 | 2.512 ± 0.039 mPa·s and 2.733 ± 0.081 mPa·s
308.15 K, 101 kPa, x1 = 0.73 | 1.86 ± 0.038 mPa·s
308.15 K, 101.3 kPa, x1 = 0.012 | 0.792 ± 0.021 mPa·s
308.15 K, 101.3 kPa, x2 = 0.1906 | 1.876 ± 0.049 mPa·s
308.15 K, 101.3 kPa, x2 = 0.3252 | 2.109 ± 0.055 mPa·s
308.15 K, 101.3 kPa, x2 = 0.5203 | 2.607 ± 0.068 mPa·s
308.15 K, 101.3 kPa, x2 = 0.6501 | 2.802 ± 0.073 mPa·s
308.15 K, 101.3 kPa, x2 = 0.743 | 2.558 ± 0.067 mPa·s
308.15 K, 101.3 kPa, x2 = 0.8183 | 2.097 ± 0.055 mPa·s
308.15 K, 101.3 kPa, x2 = 0.8668 | 1.708 ± 0.044 mPa·s
308.15 K, 101.3 kPa, x2 = 0.9101 | 1.36 ± 0.035 mPa·s
308.15 K, 101.3 kPa, x2 = 0.9455 | 1.091 ± 0.028 mPa·s
308.15 K, 101.3 kPa, x2 = 0.9751 | 0.879 ± 0.023 mPa·s
313.15 K, 101 kPa, x1 = 0.01 | 0.72 ± 0.02 mPa·s
313.15 K, 101 kPa, x1 = 0.01869 | 0.73 ± 0.22 mPa·s
313.15 K, 101 kPa, x1 = 0.025 | 0.79 ± 0.02 mPa·s
313.15 K, 101 kPa, x1 = 0.039 | 0.87 ± 0.02 mPa·s
313.15 K, 101 kPa, x1 = 0.0406 | 0.85 ± 0.26 mPa·s
313.15 K, 101 kPa, x1 = 0.05 | 0.981 ± 0.008 mPa·s
313.15 K, 101 kPa, x1 = 0.055 | 0.96 ± 0.03 mPa·s
313.15 K, 101 kPa, x1 = 0.071 | 1.07 ± 0.03 mPa·s
313.15 K, 101 kPa, x1 = 0.09 | 1.19 ± 0.03 mPa·s
313.15 K, 101 kPa, x1 = 0.11 | 1.33 ± 0.03 mPa·s
313.15 K, 101 kPa, x1 = 0.13 | 1.5 ± 0.04 mPa·s
313.15 K, 101 kPa, x1 = 0.15 | 1.704 ± 0.019 mPa·s
313.15 K, 101 kPa, x1 = 0.16 | 1.69 ± 0.04 mPa·s
313.15 K, 101 kPa, x1 = 0.19 | 1.89 ± 0.05 mPa·s
313.15 K, 101 kPa, x1 = 0.25 | 2.296 ± 0.029 mPa·s
313.15 K, 101 kPa, x1 = 0.26 | 2.24 ± 0.06 mPa·s
313.15 K, 101 kPa, x1 = 0.3 | 2.39 ± 0.06 mPa·s
313.15 K, 101 kPa, x1 = 0.35 | 2.521 ± 0.036 mPa·s
313.15 K, 101 kPa, x1 = 0.41 | 2.48 ± 0.06 mPa·s
313.15 K, 101 kPa, x1 = 0.48 | 2.22 ± 0.034 mPa·s and 2.34 ± 0.06 mPa·s
313.15 K, 101 kPa, x1 = 0.57 | 2.16 ± 0.06 mPa·s
313.15 K, 101 kPa, x1 = 0.67 | 1.95 ± 0.05 mPa·s
313.15 K, 101 kPa, x1 = 0.73 | 1.72 ± 0.035 mPa·s
313.15 K, 101 kPa, x1 = 0.81 | 1.73 ± 0.04 mPa·s
313.15 K, 101.3 kPa, x1 = 0.012 | 0.718 ± 0.019 mPa·s
313.15 K, 101.3 kPa, x2 = 0.1906 | 1.709 ± 0.045 mPa·s
313.15 K, 101.3 kPa, x2 = 0.3252 | 1.905 ± 0.05 mPa·s
313.15 K, 101.3 kPa, x2 = 0.5203 | 2.313 ± 0.06 mPa·s
313.15 K, 101.3 kPa, x2 = 0.6501 | 2.459 ± 0.064 mPa·s
313.15 K, 101.3 kPa, x2 = 0.743 | 2.24 ± 0.058 mPa·s
313.15 K, 101.3 kPa, x2 = 0.8183 | 1.848 ± 0.048 mPa·s
313.15 K, 101.3 kPa, x2 = 0.8668 | 1.513 ± 0.039 mPa·s
313.15 K, 101.3 kPa, x2 = 0.9101 | 1.214 ± 0.032 mPa·s
313.15 K, 101.3 kPa, x2 = 0.9455 | 0.978 ± 0.025 mPa·s
313.15 K, 101.3 kPa, x2 = 0.9751 | 0.794 ± 0.021 mPa·s
318.15 K, 101 kPa, x1 = 0.055 | 0.847 ± 0.022 mPa·s
318.15 K, 101 kPa, x1 = 0.48 | 2.066 ± 0.079 mPa·s
318.15 K, 101 kPa, x2 = 0.047 | 1.423 ± 0.014 mPa·s
318.15 K, 101 kPa, x2 = 0.089 | 1.457 ± 0.015 mPa·s
318.15 K, 101 kPa, x2 = 0.186 | 1.553 ± 0.018 mPa·s
318.15 K, 101 kPa, x2 = 0.522 | 2.083 ± 0.036 mPa·s
318.15 K, 101 kPa, x2 = 0.59 | 2.164 ± 0.04 mPa·s
318.15 K, 101.3 kPa, x1 = 0.012 | 0.654 ± 0.017 mPa·s
318.15 K, 101.3 kPa, x2 = 0.5203 | 2.065 ± 0.054 mPa·s
318.15 K, 101.3 kPa, x2 = 0.743 | 1.976 ± 0.051 mPa·s
318.15 K, 101.3 kPa, x2 = 0.8183 | 1.637 ± 0.043 mPa·s
318.15 K, 101.3 kPa, x2 = 0.8668 | 1.348 ± 0.035 mPa·s
318.15 K, 101.3 kPa, x2 = 0.9101 | 1.09 ± 0.028 mPa·s
318.15 K, 101.3 kPa, x2 = 0.9455 | 0.884 ± 0.023 mPa·s
318.15 K, 101.3 kPa, x2 = 0.9751 | 0.722 ± 0.019 mPa·s
323.15 K, 101 kPa, x1 = 0.01869 | 0.62 ± 0.19 mPa·s
323.15 K, 101 kPa, x1 = 0.0406 | 0.71 ± 0.21 mPa·s
323.15 K, 101.3 kPa, x1 = 0.012 | 0.6 ± 0.016 mPa·s
323.15 K, 101.3 kPa, x2 = 0.1906 | 1.428 ± 0.037 mPa·s
323.15 K, 101.3 kPa, x2 = 0.3252 | 1.577 ± 0.041 mPa·s
323.15 K, 101.3 kPa, x2 = 0.5203 | 1.853 ± 0.048 mPa·s
323.15 K, 101.3 kPa, x2 = 0.6501 | 1.931 ± 0.05 mPa·s
323.15 K, 101.3 kPa, x2 = 0.743 | 1.754 ± 0.046 mPa·s
323.15 K, 101.3 kPa, x2 = 0.8183 | 1.46 ± 0.038 mPa·s
323.15 K, 101.3 kPa, x2 = 0.8668 | 1.211 ± 0.032 mPa·s
323.15 K, 101.3 kPa, x2 = 0.9101 | 0.985 ± 0.026 mPa·s
323.15 K, 101.3 kPa, x2 = 0.9455 | 0.805 ± 0.021 mPa·s
323.15 K, 101.3 kPa, x2 = 0.9751 | 0.66 ± 0.017 mPa·s
